Experimental findings from PubChem BioAssay (NCI) are described below.

Values joined by “and” are separate entries in the source; they are usually repeats but may differ in a detail not shown here. Equal entries are not always repeated.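 Test compounds were applied to cells in 96-well plates for 48 hours at 5 doses. GI50: concentration for 50% inhibition of growth. TGI: total growth inhibition.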 A value given as a limit tells only on which side of the number the result lay.

Common to all, as to assay: NCI anticancer screen, dose series, 48 h
Assay [1] deals with DLD-1 colon.
The test system of assay [2] is DMS 114 small cell lung.
The subject of assay [3] is DMS 273 small cell lung.
Assay [4] concerns LXFL 529 NSCLC.
Assay [5] has as its system M19-MEL melanoma.
The test system of assay [6] is SNB-78 CNS.
In assay [7] the test system is XF 498 CNS.
In assay [8] the test system is MCF7 breast.
For assay [9], the system named is T-47D breast.
For assay [10], the system named is MDA-MB-435.

With `N/C(=N/N=C/c1cccc(F)c1)NO`, the TGI in assay [1] was over 100 µM; in assay [2], 84.7 µM; in assay [3], over 100 µM; in [4] it was over 100 µM; in assay [5], over 100 µM; in [6], over 100 µM. The molecule further had a TGI in assay [7] of over 100 µM.
For the molecule `O=[P+](O)c1cccnc1`, the TGI in assay [1], in [2], in assay [3], in [4], in assay [5] and in [6] was over 100 µM each time. This molecule also showed a TGI in assay [7] of over 100 µM.
Take `c1ccc(N2N=NC3C4CC(C5c6ccccc6C45)C32)cc1` (configuration not stated): the TGI is over 100 µM in assay [1]; 47.5 µM in assay [2]; over 100 µM in [3]; over 100 µM in assay [4]; 46.7 µM in [5]; over 100 µM in [6]. Besides, the TGI in assay [7] was found to be 38.5 µM.
Consider `O=Cc1cn(S(=O)(=O)c2ccccc2)c2ccccc12`, for which the TGI is over 100 µM in assay [1]; 62.9 µM in assay [2]; over 100 µM in assay [4]; over 100 µM in assay [5]; over 100 µM in [6]; over 100 µM in [7].
`Cc1cc(Cl)ccc1Nc1nc2c(s1)C(=O)c1ccccc1C2=O`: the TGI came out at 12.5 µM in assay [1]; 4.85 µM in assay [2]; 5.71 µM in assay [3]; 12.8 µM in assay [4]; 2.06 µM in [5]; 3.72 µM in assay [8]. The TGI was over 80.9 µM in assay [6] and 7.06 µM in assay [9].
For the molecule `CCOC(=O)CP(=S)(S)c1ccccc1` (configuration not stated), the TGI in assay [1], in assay [2], in assay [3], in [4], in assay [5] and in [6] was over 100 µM in each case. In [7], the TGI was over 100 µM.
Consider `Cn1c2c(c3ccccc31)CCN(CCCN1CCN(c3ccccc3)CC1)C2=O`, for which the TGI in assay [1] came out at 46.6 µM; in assay [2], 38.1 µM; in assay [3], 52.4 µM; in assay [4], 36.3 µM; in assay [5] it was 38.2 µM; in assay [7], 27.8 µM.
As for `C=CCn1c(=O)c(C(=O)NC(=O)OCC)cn(C2CCCCC2)c1=O`, the TGI in assay [1], in assay [2], in [3], in assay [4], in [6] and in [7] was over 100 µM each time.
Turning to `C1=CC(=NN=P(c2ccccc2)(c2ccccc2)c2ccccc2)C=C1`, the TGI in [1], in assay [2], in [3], in assay [4], in assay [5] and in assay [7] was over 100 µM throughout.
For `COC(=O)C1=Cc2cn(S(=O)(=O)c3ccc(C)cc3)c3cccc(c23)C(C=C(C)C)N1C(C)=O` (configuration not stated), the TGI in assay [1], in [2], in assay [3], in assay [4], in [5] and in assay [6] was over 100 µM in each case. In assay [7], this molecule displayed a TGI of over 100 µM.
Consider `C/C(CC(=O)Nc1ccc([N+](=O)[O-])cc1)=N\Nc1ccc([N+](=O)[O-])cc1[N+](=O)[O-]`, for which the TGI in assay [1], in [2], in assay [3], in assay [4], in assay [5] and in assay [6] was over 100 µM in each case. The TGI in [7] is over 100 µM.
With `O=C(O)CCCc1cc2c(s1)-c1cccc3cccc-2c13`, the TGI was over 100 µM in assay [1]; over 100 µM in [3]; over 100 µM in assay [4]; 94.9 µM in assay [6]; over 100 µM in assay [7].
Regarding `COC1C(C)OC(OC2CC(C)(O)Cc3cc4c(c(O)c32)C(=O)c2c(O)cc3c(c2C4=O)OC2OC3(C)C(O)C(N(C)C)C2O)C(OC)C1(C)OC` (configuration not stated), the GI50 in [1] was 0.183 µM; in [3] it was 0.0298 µM; in [6] it was 0.00657 µM and 0.0327 µM; in [7], 0.03 µM. Besides, the TGI in assay [1] was 5.12 µM and 3.91 µM; in [2], 0.0635 µM and 0.0446 µM; in assay [3], 0.557 µM and 0.137 µM; in assay [4], 2.84 µM; in [8] it was 0.413 µM; in assay [10], 0.00306 µM. The TGI in assay [6] was 1.78 µM and 2.57 µM; in assay [9] it was 0.000313 µM; in assay [7] it was 0.292 µM and 0.0483 µM.
For the molecule `C=CNC(=S)n1nc(-c2ccccc2NC(=O)C(F)(F)F)c(=O)n(C(=S)NC=C)c1=S`, the TGI in assay [1] is 49.3 µM; in assay [2], 28.9 µM; in assay [3], over 100 µM; in assay [4], over 100 µM; in [5], over 100 µM; in [6], over 100 µM. Besides, the TGI in assay [7] came to 83 µM.
In the case of `CC(C)OC(=O)c1cccnc1/C=N/O`, the TGI in [1], in assay [2], in assay [3], in [4], in assay [5] and in [6] was over 100 µM each time. Also, the TGI in [7] was over 100 µM.
On to `C/C(CC(=O)Nc1cccc(C)c1C)=N\NC(N)=S`, for which the TGI in [1], in assay [2], in assay [3], in assay [4], in [5] and in [6] was over 100 µM each time. Besides, in [7], the TGI was over 100 µM.
On to `Cc1cc2c(C)nn(Cc3ccccc3Cl)c2c(C#N)c1C`, for which the TGI in assay [1], in [3], in assay [4], in assay [5] and in assay [7] was over 100 µM in each case.
Turning to `CC(C)=Cc1cc(C(=O)NCCNC(=O)c2cc(C=C(C)C)nc(NC#N)n2)nc(NC#N)n1`, the TGI in [2], in [4], in assay [5] and in assay [7] was over 100 µM throughout.
